Reference: US20240252472A1, “COMBINATIONS FOR TREATING CANCER” (Purdue Pharma L.P., priority 2023, published 2024)

Legend:
[1] = system: MICA; assay: MICA expression on MM patients' plasma cells ex vivo; format: cell-based, human; conditions: 6 out of the 9 patients analyzed, 48 hours
Description: (§1) For surface staining, cells were incubated with the appropriate antibodies and 7AAD (Immunostep) for 15 min in the dark. Data were acquired using a FACSCalibur cytometer (BD Biosciences) and analyzed using Infinicyt™ software (Cytognos). Specifically, the expression of CD38 or ligands for NK cell activating receptors (MICA, MICB, ULBP1-3, PVR and CD112) in MM cell lines was determined on the viable cell population (7AAD-). In primary myeloma cells, the expression of CD38 was analyzed over the viable myeloma population using the panel CD138-FITC/CD56-PE/7AAD/CD38-APC, whereas MICA/B-AF488/CD56-PE/7AAD/CD38-APC panel was used to determine MICA/B expression. Normalized median fluorescence intensity (MFI) was calculated by dividing median fluorescence obtained with the specific antibody by median fluorescence of the corresponding isotype control. MFI for each treatment was expressed as a percentage relative to the control (100%, cells cultured in media with DMSO).

[2] = system: CD38; assay: CD38 surface expression in MM cell lines by flow cytometry; format: cell-based, human
Description: (§2) Cell Treatment with EDO-S101 MM cells (MM1S, JJN3, KMS12-BM, RPMI-8226, U266, MOLP-8) were either treated with a control (0 μM EDO-S101, DMSO vehicle) or treated with EDO-S101 (0.1, 0.5, 1 or 2.5 μM in DMSO) for 48 hours, unless indicated otherwise.
as §1, with “DMSO). […]” for “DMSO).”

[3] = system: subcutaneous plasmacytoma derived from MM1.S cells; assay: Second subcutaneous plasmacytoma model, CB17-SCID mice; format: in vivo; conditions: EDO-S101 30 mg/kg i.v. weekly, daratumumab 8 mg/kg i.p. weekly, 4 weeks; vehicle 34 days
Description: For the second subcutaneous human plasmacytoma model, CB17-SCID mice (The Jackson Laboratory) were used. CB17-SCID mice were randomised into groups (n=5). The design of the experiment (treatment doses and time schedule) was identical to the experiment described above with NSG mice except for the inoculation of NK cells, since CB17-SCID mice have their own functional NK cells.
For the second subcutaneous human plasmacytoma model, CB17-SCID mice (20 female mice, 5-6 weeks old; from The Jackson Laboratory) were used. The design of the experiment (treatment doses and time schedule) was identical to the one performed with NSG mice except for the inoculation of human NK cells, since CB17-SCID mice hold their own functional NK cells (Dorshkind et al., J Immunol 134:3798-3801, 1985).
In the second xenograft plasmacytoma model, CB17-SCID mice bearing a subcutaneous plasmacytoma derived from MM1.S cells were randomized to receive vehicle, daratumumab, EDO-S101 or the double combination. Mice were treated with EDO-S101 on Mondays and daratumumab was administered on Tuesdays. […] Furthermore, statistical differences in survival were also found between the combination vs vehicle (58 days±2.739 vs 34 days±2.191 days, respectively; p=0.003).

[4] = system: CD38 mRNA; assay: CD38 mRNA by RT-qPCR in MM cell lines; format: cell-based, human; conditions: MM1.S, JJN3, RPMI-8226; 1 and 2.5 μM, 36 hours
Description: Real time quantitative PCR (RT-qPCR) Total RNA was isolated using the RNeasy Mini Kit (Qiagen, Hilden, Germany). Following reverse transcription, PCR was performed using TaqMan Gene Expression Assays (Applied Biosystems, Foster City, CA, USA): CD38 (Hs01120071_m1), MICA (Hs00741286_m1), MICB (Hs00792952_m1) and GAPDH (Hs99999905_m1). The results were expressed as fold change relative to expression of the target gene in control cells, using endogenous expression of GAPDH for normalization.

[5] = system: MOLP-8; assay: Percentage of viable MM cells after treatment; format: cell-based; conditions: Homo sapiens, MOLP-8, read-out: percentage of viable cells
Description: as §2

[6] = system: JJN3; assay: Percentage of viable MM cells after treatment; format: cell-based; conditions: Homo sapiens, JJN-3, read-out: percentage of viable cells
Description: as §2

[7] = system: MM1S-luc derived tumors; assay: Disseminated human myeloma model, CB17-SCID mice; format: in vivo; conditions: EDO-S101 15 mg/kg i.v. weekly, daratumumab 8 mg/kg i.p. weekly, 4 weeks; vehicle 33 days
Description: MM1S-luc cells (3×10^6) were injected intravenously (i.v.) into CB17-SCID mice which were determined to have normal NK cells, monocytes and granulocytes (The Jackson Laboratory, Bar Harbor, ME, USA). Tumor development was monitored by non-invasive bioluminescence imaging (BLI) with a Xenogen IVIS 50 system (Caliper Life Sciences, Hopkinton, MA, USA). Mice were randomized into four groups (n=5/group): one receiving vehicle (i.v., weekly), another group receiving EDO-S101 (15 mg/kg i.v., weekly on Tuesdays), another group receiving daratumumab (8 mg/kg i.p., weekly on Wednesdays) and the last group receiving the double combination of EDO-S101+daratumumab. Both drugs were administered over a period of 4 weeks.
CB17-SCID mice bearing MM1S-luc derived tumors were treated with EDO-S101, daratumumab, a combination thereof, or vehicle, in accordance with the methods outlined above. MM1S-Luc cells (3×10^6) were intravenously injected into CB17-SCID mice. After 2 weeks, mice were randomized into four groups: one receiving vehicle (i.v., weekly), another group receiving EDO-S101 (15 mg/kg i.v., weekly on Tuesdays), another group receiving daratumumab (8 mg/kg i.p., weekly on Wednesdays) and the last group received the double combination of EDO-S101+daratumumab. Survival of mice analyzed with a Kaplan-Meier curve. Both drugs were administered over a period of 4 weeks.

Cn1c(CCCCCCC(=O)NO)nc2cc(N(CCCl)CCCl)ccc21 [EDO-S101, 7-(5-(bis(2-chloroethyl)amino)-1-methyl-1H-benzo[d]imidazol-2-yl)-N-hydroxyheptanamide]
expression of MICA in tinostamustine-treated vs DMSO-treated patient cells [1]: at least twice
percentage of CD38+ cell population ([2]; JJN3 cell line, 1 and 2.5 μM): significantly increased
CD38 surface expression (normalized MFI) ([2]; MM1.S, JJN3, KMS12-BM, RPMI-8226, U226, MOLP-8, 0.1, 0.5, 1 and 2.5 μM, 48 hours, relative to DMSO control, only exception NCI-H929): significantly increased
overall median survival [3]: 51 days
CD38 expression at the transcriptional level (qPCR) [4]: increased
viability at 2.5 µM [5]: 25.6%
viability at 2.5 µM [6]: 55.5%
median survival [7]: 45 days
